Experimental data: the supplement of paper PMC10307832

Experiments:
Assay in all cases: relative viability (nuclei count vs DMSO), 5 days (fraction); higher = more cells survive
Serdemetan + Navitoclax = compound: c1ccc2c(CCNc3ccc(Nc4ccncc4)cc3)c[nH]c2c1 [Serdemetan] + CC1(C)CCC(c2ccc(Cl)cc2)=C(CN2CCN(c3ccc(C(=O)NS(=O)(=O)c4ccc(N[C@H](CCN5CCOCC5)CSc5ccccc5)c(S(=O)(=O)C(F)(F)F)c4)cc3)CC2)C1 [Navitoclax] (partner 0.5 µM)
Procedure, shortened: (§1)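 Relative viability was taken as the ratio of nuclei in treated wells to nuclei in vehicle wells. Lung cancer cell lines in 1536-well plates received compounds by pin tool one day after seeding, either one drug alone or a fixed anchor-drug dose plus five library-drug doses (not always all listed) in √10 steps. Nuclei were counted on 4× images after 5 days of treatment, and values are medians of duplicate plates.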

Selisistat + Vorinostat = compound: C1CC(C2=C(C1)C3=C(N2)C=CC(=C3)Cl)C(=O)N [Selisistat] + O=C(CCCCCCC(=O)Nc1ccccc1)NO [Vorinostat] (partner 1 µM)
Procedure, shortened: as §1

Serdemetan + Linsitinib = compound: c1ccc2c(CCNc3ccc(Nc4ccncc4)cc3)c[nH]c2c1 [Serdemetan] + C[C@]1(O)C[C@@H](c2nc(-c3ccc4ccc(-c5ccccc5)nc4c3)c3c(N)nccn32)C1 [Linsitinib] (partner 1 µM)
Procedure, shortened: as §1

Selisistat + OSI-027 = compound: C1CC(C2=C(C1)C3=C(N2)C=CC(=C3)Cl)C(=O)N [Selisistat] + COc1cccc2cc(-c3nc([C@H]4CC[C@H](C(=O)O)CC4)n4ncnc(N)c34)[nH]c12 [OSI-027] (partner 0.5 µM)
Procedure, shortened: as §1

Cell Line | relative viability (Serdemetan + Navitoclax; first compound 0.04 µM) | relative viability (Serdemetan + Navitoclax; first compound 0.1265 µM) | relative viability (Serdemetan + Navitoclax; first compound 0.4 µM) | relative viability (Serdemetan + Navitoclax; first compound 1.265 µM) | relative viability (Serdemetan + Navitoclax; first compound 4 µM) | relative viability (Selisistat + Vorinostat; first compound 0.4 µM) | relative viability (Selisistat + Vorinostat; first compound 1.265 µM) | relative viability (Selisistat + Vorinostat; first compound 4 µM) | relative viability (Selisistat + Vorinostat; first compound 12.65 µM) | relative viability (Selisistat + Vorinostat; first compound 40 µM) | relative viability (Serdemetan + Linsitinib; first compound 0.04 µM) | relative viability (Serdemetan + Linsitinib; first compound 0.1265 µM) | relative viability (Serdemetan + Linsitinib; first compound 0.4 µM) | relative viability (Serdemetan + Linsitinib; first compound 1.265 µM) | relative viability (Serdemetan + Linsitinib; first compound 4 µM) | relative viability (Selisistat + OSI-027; first compound 0.4 µM) | relative viability (Selisistat + OSI-027; first compound 1.265 µM) | relative viability (Selisistat + OSI-027; first compound 4 µM) | relative viability (Selisistat + OSI-027; first compound 12.65 µM) | relative viability (Selisistat + OSI-027; first compound 40 µM)
201T | 1.18 | 1.22 | 1.2 | 1.14 | 1.13 | 1.07 | 0.98 | 0.85 | 1 | 0.995 | 1.04 | 1.03 | 1.01 | 1.02 | 0.781 | 0.797 | 0.705 | 0.555 | 0.587 | 0.739
A549 | 1.2 | 1.15 | 1.19 | 0.598 | 0.208 | – | – | – | – | – | 0.595 | 0.578 | 0.631 | 0.42 | 0.179 | – | – | – | – | –
A-427 | 0.967 | 0.971 | 0.882 | 0.724 | 0.615 | 0.905 | 0.934 | – | 0.881 | 0.875 | 1.06 | 1.04 | 1.07 | 0.883 | 0.576 | 0.455 | 0.432 | 0.301 | 0.421 | 0.57
ABC-1 | – | – | – | – | – | 1.38 | 1.28 | – | 1.09 | 1.19 | 0.85 | 0.87 | 0.738 | 0.6 | 0.489 | 0.499 | 0.447 | 0.331 | 0.442 | 0.436
BEN | 0.0749 | 0.0626 | 0.0845 | 0.0724 | 0.0676 | 0.625 | 0.663 | 0.545 | 0.636 | 0.657 | 0.857 | 0.929 | 0.956 | 0.875 | 0.679 | 0.263 | 0.251 | 0.282 | 0.282 | 0.274
CAL-12T | 1.3 | 1.42 | 1.26 | – | 1.19 | 0.66 | 0.727 | 1.05 | 0.766 | 0.768 | 0.77 | 0.793 | 0.698 | 0.864 | 0.651 | 0.726 | 0.535 | 0.472 | 0.53 | 0.694
COR-L23 | 1.03 | 1 | 1.07 | 0.939 | 0.81 | 0.499 | 0.49 | 0.577 | 0.515 | 0.573 | 0.906 | 0.752 | 0.891 | 0.688 | 0.788 | 0.866 | 0.803 | 0.799 | 0.653 | 0.653
COR-L 105 | 0.708 | 0.871 | 0.596 | 0.771 | 0.722 | 0.892 | 0.846 | 0.876 | 0.964 | 1.21 | 0.86 | 1.14 | 0.847 | 1.04 | 0.845 | 0.755 | 0.624 | – | 0.712 | 0.584
Calu-6 | 0.973 | 0.869 | 0.682 | 0.687 | 0.493 | – | – | – | – | – | 0.895 | 0.962 | 0.958 | 0.913 | 0.698 | – | – | – | – | –
ChaGo-K-1 | – | 1.15 | 0.925 | 0.681 | 0.899 | 0.72 | 0.728 | 0.73 | 0.729 | 0.842 | – | – | – | – | – | 0.588 | 0.461 | 0.492 | 0.535 | 0.617
EBC-1 | 0.553 | 0.47 | 0.41 | 0.424 | 0.341 | – | – | – | – | – | 0.807 | 0.904 | 0.952 | 0.794 | 0.634 | – | – | – | – | –
EKVX | 0.862 | 0.888 | 0.973 | 0.791 | 0.91 | 0.708 | 0.757 | – | 0.903 | 0.655 | 0.997 | 0.971 | 0.861 | 0.968 | 0.639 | 0.756 | 0.754 | 0.689 | 0.69 | 0.697
EMC-BAC-2 | 1.14 | 1.14 | 1.1 | 1.09 | 0.745 | 0.487 | 0.515 | 0.0984 | 0.12 | 0.12 | 0.802 | 0.753 | 0.787 | 0.755 | 0.613 | 0.391 | 0.358 | 0.462 | 0.362 | 0.342
EPLC-272H | 1.11 | 1.15 | 0.822 | 0.632 | 0.691 | 0.453 | 0.729 | 0.52 | 0.529 | 0.693 | 1.29 | 1.18 | 1.07 | 1 | 0.703 | 0.274 | 0.237 | – | 0.289 | 0.289
H3255 | 0.437 | 0.538 | 0.485 | 0.362 | 0.404 | 0.885 | 0.93 | 0.822 | 0.834 | 0.872 | 0.938 | 0.832 | 0.931 | 1.03 | 0.814 | 0.621 | 0.553 | 0.741 | 0.579 | 0.648
HARA | 1.12 | 1.11 | 1.09 | – | 0.757 | 0.436 | 0.552 | 0.529 | 0.756 | 0.85 | 0.948 | 0.865 | 0.854 | – | 0.441 | 0.632 | 0.405 | 0.382 | 0.508 | 0.477
HCC-15 | 0.755 | 0.729 | 0.624 | 0.56 | 0.504 | 0.912 | 0.931 | 0.875 | 0.878 | 1.07 | 0.861 | 0.893 | 0.797 | 0.647 | 0.62 | 0.81 | 0.676 | – | 0.622 | 0.618
HCC-44 | 1.13 | 1.04 | 0.972 | 0.756 | 0.741 | 1.08 | 1.09 | 1.21 | 1.24 | 1.24 | 0.637 | 0.634 | 0.598 | 0.426 | 0.424 | 0.591 | – | – | 0.457 | 0.586
